Laboratory results reported in ChEMBL document CHEMBL1201862, “PubChem BioAssay data set” (2004).
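Where inhibition never reached the appropriate level, the endpoint shown equals the highest concentration tested. Otherwise, values were interpolated linearly from a five-concentration, 48-hour dose response in 96-well plates. At the GI50, growth is halved.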 Active and inactive are the calls of the source. No stated cut-off is given here; in the data, active = GI50 up to about 1.1 µM and inactive = higher.

Columns and labels:
Assay in all cases: NCI tumour cell line growth inhibition, 48 h
A549 = tested on: A549
HOP-62 = tested on: HOP-62
IGROV-1 = tested on: IGROV-1
MCF7 = tested on: MCF7
MDA-MB-435 = tested on: MDA-MB-435
MOLT-4 = tested on: MOLT-4
NCI-H226 = tested on: NCI-H226
NCI-H522 = tested on: NCI-H522
NCI/ADR-RES = tested on: NCI/ADR-RES
OVCAR-4 = tested on: OVCAR-4
RPMI-8226 = tested on: RPMI-8226
RXF 393 = tested on: RXF 393
SF-539 = tested on: SF-539
SK-MEL-5 = tested on: SK-MEL-5
SK-OV-3 = tested on: SK-OV-3
SR = tested on: SR
TK-10 = tested on: TK-10
U-251 = tested on: U-251
UACC-257 = tested on: UACC-257
UACC-62 = tested on: UACC-62

SMILES | GI50 (A549) | GI50 (HOP-62) | GI50 (IGROV-1) | GI50 (MCF7) | GI50 (MDA-MB-435) | GI50 (MOLT-4) | GI50 (NCI-H226) | GI50 (NCI-H522) | GI50 (NCI/ADR-RES) | GI50 (OVCAR-4) | GI50 (RPMI-8226) | GI50 (RXF 393) | GI50 (SF-539) | GI50 (SK-MEL-5) | GI50 (SK-OV-3) | GI50 (SR) | GI50 (TK-10) | GI50 (U-251) | GI50 (UACC-257) | GI50 (UACC-62)
CC(C)=CCNc1ncnc2c1c(C#N)cn2C1OC(CO)C(O)C1O (stereo not given) | 8.32 µM (inactive) | 53.1 µM (inactive) | 0.431 µM (active) | < 0.019 µM (active) | 31.1 µM (inactive) | 65.2 µM (inactive) | 39.2 µM (inactive) | 7.64 µM (inactive) | > 82 µM (inactive) | 1.1 µM (active) | 3.56 µM (inactive) | 71.1 µM (inactive) | > 72.1 µM (inactive) | 21.7 µM (inactive) | 16.9 µM (inactive) | 5.45 µM (inactive) | 1.21 µM (inactive) | > 67.5 µM (inactive) | > 100 µM (inactive) | 39.7 µM (inactive)
CCOC(=O)/C=C(/C(=O)OCC)n1ccc(=O)n(Cc2cnnn2COCCOC(C)=O)c1=O | 41.1 µM (inactive) | > 73.1 µM (inactive) | 17.9 µM (inactive) | 10.4 µM (inactive) | 16.6 µM (inactive) | 4.51 µM (inactive) | 24.3 µM (inactive) | 1.95 µM (inactive) | 21.9 µM (inactive) | 20 µM (inactive) | 10.9 µM (inactive) | 15.4 µM (inactive) | 11 µM (inactive) | 19.1 µM (inactive) | > 100 µM (inactive) | 13.4 µM (inactive) | 7.26 µM (inactive) | 17.9 µM (inactive) | 16.8 µM (inactive) | 17.3 µM (inactive)
CN(C)C(=S)NC(=S)Nc1ccc2ccccc2c1 | 6.73 µM (inactive) | 18.4 µM (inactive) | 14.4 µM (inactive) | 10.3 µM (inactive) | 18.8 µM (inactive) | 4.93 µM (inactive) | 12.1 µM (inactive) | 5.7 µM (inactive) | 13.8 µM (inactive) | 24.7 µM (inactive) | 5.56 µM (inactive) | 18.4 µM (inactive) | 15.1 µM (inactive) | 7.18 µM (inactive) | 24.8 µM (inactive) | 3.97 µM (inactive) | 22.7 µM (inactive) | 11.6 µM (inactive) | 8.95 µM (inactive) | 2.14 µM (inactive)
CCOC(=O)C(C(=S)Nc1ccccc1)c1nn2c(=O)cc(C)nc2s1 (stereo not given) | 37.4 µM (inactive) | 65 µM (inactive) | 36.7 µM (inactive) | 19.4 µM (inactive) | 20.9 µM (inactive) | 25 µM (inactive) | 21.7 µM (inactive) | 22.3 µM (inactive) | 26.7 µM (inactive) | 30.8 µM (inactive) | 26.3 µM (inactive) | 39.1 µM (inactive) | 22.9 µM (inactive) | 23.1 µM (inactive) | 23.3 µM (inactive) | 25.1 µM (inactive) | 29.7 µM (inactive) | 26.7 µM (inactive) | 22.7 µM (inactive) | 23.7 µM (inactive)
NC(=S)N/N=C\c1nccc2ccccc12 | 0.413 µM (active) | 0.321 µM (active) | 0.42 µM (active) | 0.253 µM (active) | 0.388 µM (active) | 0.226 µM (active) | 0.184 µM (active) | 0.908 µM (active) | 0.285 µM (active) | 0.309 µM (active) | 0.267 µM (active) | 0.357 µM (active) | 0.155 µM (active) | 0.143 µM (active) | 0.2 µM (active) | 0.126 µM (active) | 0.551 µM (active) | 0.281 µM (active) | 1.42 µM (inactive) | 0.136 µM (active)
Cc1ccc(/N=C2N=C(Cl)/C(=C\c3ccco3)N\2)cc1 | > 100 µM (inactive) | > 100 µM (inactive) | > 100 µM (inactive) | > 100 µM (inactive) | > 100 µM (inactive) | > 91.8 µM (inactive) | > 100 µM (inactive) | > 100 µM (inactive) | > 100 µM (inactive) | > 100 µM (inactive) | > 87.1 µM (inactive) | > 100 µM (inactive) | > 100 µM (inactive) | > 100 µM (inactive) | > 100 µM (inactive) | 96.8 µM (inactive) | > 100 µM (inactive) | > 100 µM (inactive) | > 100 µM (inactive) | > 100 µM (inactive)
COc1ccc(-c2nc(N(C)C)c3ccccc3n2)cc1 | 6.1 µM (inactive) | 16.6 µM (inactive) | 9.55 µM (inactive) | 11 µM (inactive) | 15.3 µM (inactive) | 3.91 µM (inactive) | 3.31 µM (inactive) | 7.96 µM (inactive) | 5.09 µM (inactive) | 32.6 µM (inactive) | 5.56 µM (inactive) | 9.29 µM (inactive) | 20.4 µM (inactive) | 13.1 µM (inactive) | 15.8 µM (inactive) | 10.8 µM (inactive) | 18.3 µM (inactive) | 20.5 µM (inactive) | 16.4 µM (inactive) | 12.7 µM (inactive)
O=C(CCN1CCCCC1)Nc1ccc2c(c1)C(=O)c1ccc(NC(=O)CCN3CCCCC3)cc1C2=O | 4.84 µM (inactive) | 2.12 µM (inactive) | 3.61 µM (inactive) | 2.31 µM (inactive) | 1.82 µM (inactive) | 3.83 µM (inactive) | 15.6 µM (inactive) | 16.9 µM (inactive) | 10.9 µM (inactive) | 3.5 µM (inactive) | 4.43 µM (inactive) | 3.85 µM (inactive) | 2.61 µM (inactive) | 5.71 µM (inactive) | 13.2 µM (inactive) | 2.47 µM (inactive) | 8.34 µM (inactive) | 4.98 µM (inactive) | 16.3 µM (inactive) | 19.9 µM (inactive)
NC1CC(=O)c2csc(Br)c21 (stereo not given) | 36.7 µM (inactive) | 24.4 µM (inactive) | 7.76 µM (inactive) | 21.1 µM (inactive) | 12.9 µM (inactive) | 15.1 µM (inactive) | 22.9 µM (inactive) | 2.05 µM (inactive) | 20.1 µM (inactive) | 16.5 µM (inactive) | 4.82 µM (inactive) | 17.2 µM (inactive) | 2.52 µM (inactive) | 20.9 µM (inactive) | > 64.6 µM (inactive) | 5.09 µM (inactive) | 12.9 µM (inactive) | 18.1 µM (inactive) | 17.3 µM (inactive) | 16.5 µM (inactive)
CC(NNC(=O)c1cc[n+]([BH2-]C#N)cc1)C(F)(F)F (stereo not given) | > 100 µM (inactive) | > 100 µM (inactive) | > 100 µM (inactive) | > 100 µM (inactive) | > 100 µM (inactive) | > 100 µM (inactive) | > 100 µM (inactive) | > 100 µM (inactive) | > 100 µM (inactive) | > 100 µM (inactive) | > 100 µM (inactive) | > 100 µM (inactive) | > 100 µM (inactive) | > 100 µM (inactive) | > 100 µM (inactive) | > 100 µM (inactive) | > 100 µM (inactive) | > 100 µM (inactive) | > 100 µM (inactive) | > 100 µM (inactive)
O=C(/C(=C\I)c1ccccc1)c1ccccc1 | 22.4 µM (inactive) | 4.19 µM (inactive) | 10.8 µM (inactive) | 1.8 µM (inactive) | 12.6 µM (inactive) | 18.3 µM (inactive) | 24.6 µM (inactive) | 4.86 µM (inactive) | 19.4 µM (inactive) | 6.7 µM (inactive) | 2.48 µM (inactive) | 5.35 µM (inactive) | 15.2 µM (inactive) | 17.3 µM (inactive) | 17.1 µM (inactive) | 8.18 µM (inactive) | 16 µM (inactive) | 2.75 µM (inactive) | 4.55 µM (inactive) | 3.26 µM (inactive)
